14 compounds from patent US5962476A, “Azolylamine derivative” (Kaken Pharmaceutical Co., Ltd., priority 1993, dated 1999) can be followed below.

Data set [1] relates to Candida albicans ATCC-10259. Kind of data set: Minimum inhibitory concentration (MIC), dilution method in SAAMF medium, 35° C. for 2 days. The data set is classed as cell-based. The conditions noted are these: ATCC10259, 48 h, read-out: Minimum inhibitory concentration (MIC), C.a. The procedure: (§1) MIC of a test compound against Candida albicans ATCC-10259 was determined by the both dilution method employing synthetic amino acid medium (SAAMF medium). Namely, to 3 μl of twofold dilution series of solution containing the test compound was added 300 μl of SAAMF medium inoculated with the fungus at the final concentration of 1×10^3 cells/ml. […] MIC of a test compound against the fungus other than the Candida albicans was determined by the agar dilution method employing Sabouraud's agar medium. That is to say, a test compound was dissolved in dimethyl sulfoxide to give a solution containing the test compound in the concentration of 10 mg/ml. Further, thus obtained solution was diluted with dimethyl sulfoxide according to twofold dilution series and 0.1 ml of the diluted solution was taken into a sterile shale. After 9.9 ml of Sabouraud's agar medium was added thereto, the mixture was sufficiently mixed to give a drug-added plate. The plate was inoculated with 5 μl of a fungus suspension at 10^6 cells/ml by Microplanter (Sakuma Seisakusho Co., Ltd.). As to Aspergillus fumigatus NI-5561 and Cryptococcus neoformans NI-7496, a plate was incubated at 30° C. for 48 hours. As to Trichophyton mentagrophytes KD-01, a plate was incubated at 30° C. for 7 days. […] Clotrimazole and fluconazole were used as comparative control compounds.
Candida albicans ATCC 10259

The test system of data set [2] is Cryptococcus neoformans NI-7496. Kind of data set: Minimum inhibitory concentration (MIC), agar dilution method on Sabouraud's agar medium, 30° C. for 48 hours. Type of data set: cell-based. The settings on record: read-out: Minimum inhibitory concentration (MIC), Cr.n. The procedure:
as §1
Cryptococcus neoformans NI-7496
(Agar dilution tests growth on a series of plates holding different concentrations.)

The test system of data set [3] is Aspergillus fumigatus NI-5561. The data set is described as above. Type of data set: cell-based. The settings on record: read-out: Minimum inhibitory concentration (MIC), A.f. The procedure:
as §1
Aspergillus fumigatus NI-5561

Data set [4] concerns Trichophyton mentagrophytes KD-01. The experiment in a line: Minimum inhibitory concentration (MIC), agar dilution method on Sabouraud's agar medium, 30° C. for 7 days. Type of data set: cell-based. The settings on record: KD01, 168 h, read-out: Minimum inhibitory concentration (MIC), T.m. Here is the method:
as §1, with “compounds. |Trichophyton mentagrophytes KD-01 | T. m.” for “compounds.”

Data set [5] concerns Trichophyton mentagrophytes KD-04. Kind of data set: Effect on trichophytosis in guinea pigs. The conditions noted are these: guinea pig, topical 1% solution, 0.2 ml once a day for 10 days from 3 days after infection. Type of data set: in vivo, male Hartley guinea pig. The procedure:
In the back of male Hartley guinea pig, weighing 400 to 500 g, a portion of skin was unhaired and rubbed lightly with sandpaper, to which 0.1 ml of microconidium suspension of Trichophyton mentagrophytes KD-04 (10^7 cells/ml) was dropped and the skin surface was infected by rubbing it with a glass rod. […] The animal was killed by etherization 2 days after the last treatment and 10 tissue specimens of skin were cut out from the infected portion and incubated on Sabouraud's agar medium for 7 days. Inhibitory ratio was calculated according to the following formula: […] of tissue specimens)}×100 The results are shown in Table 2. Clotrimazole was used as a control compound.

For a further data set, the system named is Candida albicans KC-36. Kind of data set: Therapeutic effect on cutaneous candidiasis in guinea pigs. Type of data set: in vivo, male Hartley guinea pig. The conditions noted are these: guinea pig, topical 1% solution, 0.2 ml once a day for 3 days from 2 days after infection. Here is the method: Inhibitory ratio (%={1-(number of tissue specimens found fungi/total number
of tissue specimens)}×100
In the back of male Hartley guinea pig, weighing 400 to 500 g, a portion of skin was unhaired, to which […] of spore suspension of Candida albicans KC-36 (5×10^7 cells/ml) was dropped and the skin surface was infected by rubbing it with a glass rod. To facilitate the infection, prednisolone was subcutaneously administered at 30 mg/kg on one day before the infection, the day of infection and 4 days after the infection. […] The animal was killed by etherization 2 days after the last treatment and 10 tissue specimens of skin were cut out from the infected portion and incubated on CANDIDA GS AGAR `EIKEN` (EIKEN CHEMICAL CO., LTD. ) for 7 days. The inhibitory ratio was calculated according to the above-mentioned formula. Clotrimazole was employed as a control compound.

The nature of data set [6]: Acute toxicity test for mice. The data set is classed as in vivo, male ICR mouse. Here is the method:
The compound of Example 1 was dissolved in polyethylene glycol 200 and the resultant solution was applied to a male ICR mouse of 5 weeks old by oral or subcutaneous administration.

Where [7] appears, read: Candida albicans ATCC 10259, SAAMF medium, 35° C., 2 days.
Setting [8] is: NI7496, Cryptococcus neoformans NI-7496, Sabouraud's agar, 30° C., 48 hours.
The mark [9] stands for this setting: NI5561, Aspergillus fumigatus NI-5561, Sabouraud's agar, 30° C., 48 hours.
Setting [10] is: Cryptococcus neoformans, NI7496, 48 h.
Setting [11] is: Aspergillus fumigatus, NI5561, 48 h.

≈ marks a conversion by molar mass, not a printed value. Like-named read-outs stand apart in the source and are kept apart here. Some results are limits rather than exact numbers.

On to `C=C1CCN([C@H](C)[C@](O)(Cn2cncn2)c2ccc(F)cc2F)CC1` (racemic) [Example 2, (2RS,3RS)-2-(2,4-difluorophenyl)-3-(4-methylenepiperidino)-1-(1H-1,2,4-triazol-1-yl)butan-2-ol], for which the MIC in data set [1] (setting [7]) was under 0.025 µg/mL; in data set [2] (setting [8]) it was 0.1 µg/mL (≈ 0.287 µM); in data set [3] (setting [9]) it was 0.1 µg/mL (≈ 0.287 µM); in data set [4], 0.39 µg/mL (≈ 1.12 µM).
Take `C=C1CCN([C@H](C)[C@](O)(Cn2ccnc2)c2ccc(F)cc2F)CC1` (racemic) [Example 5, (2RS,3RS)-2-(2,4-difluorophenyl)-3-(4-methylenepiperidino)-1-(1H-imidazol-1-yl)butan-2-ol]: the MIC in data set [1] (setting [7]) is under 0.025 µg/mL; in data set [2] (setting [8]), 0.025 µg/mL (≈ 0.072 µM); in data set [3] (setting [9]), 0.05 µg/mL (≈ 0.144 µM); in data set [4] it was 0.1 µg/mL (≈ 0.288 µM).
As for `CC=C1CCN([C@H](C)[C@](O)(Cn2cncn2)c2ccc(F)cc2F)CC1` (racemic) [Example 8, (2RS,3RS)-2-(2,4-difluorophenyl)-3-(4-ethylidenepiperidino)-1-(1H-1,2,4-triazol-1-yl)butan-2-ol], the MIC is under 0.025 µg/mL in data set [1] (setting [7]), 0.1 µg/mL (≈ 0.276 µM) in data set [2] (setting [8]), 0.2 µg/mL (≈ 0.552 µM) in data set [3] (setting [9]) and 0.78 µg/mL (≈ 2.15 µM) in data set [4].
Regarding `C[C@@H](N1CCC(=Cc2ccccc2)CC1)[C@](O)(Cn1cncn1)c1ccc(F)cc1F` (racemic) [Example 10, (2RS,3RS)-2-(2,4-difluorophenyl)-3-(4-benzylidenepiperidino)-1-(1H-1,2,4-triazol-1-yl)butan-2-ol], the MIC in data set [1] (setting [7]) is under 0.025 µg/mL; in data set [2] (setting [8]), 0.025 µg/mL (≈ 0.0589 µM); in data set [3] (setting [9]) it was 0.1 µg/mL (≈ 0.236 µM); in data set [4] it was 0.39 µg/mL (≈ 0.919 µM).
As for `Clc1ccccc1C(c1ccccc1)(c1ccccc1)n1ccnc1` [Clotrimazole, reference compound], the MIC was determined as 0.025 µg/mL (≈ 0.0725 µM) in data set [1] (Candida albicans), 0.2 µg/mL (≈ 0.58 µM) in data set [2] (setting [10]), 0.78 µg/mL (≈ 2.26 µM) in data set [3] (setting [11]) and 0.39 µg/mL (≈ 1.13 µM) in data set [4]. For the same compound, the Inhibitory ratio in data set [5] worked out at 20%; in the data set on Candida albicans KC-36 it was 96%.
In the case of `C=C1CCN([C@H](C)[C@](O)(Cn2cncn2)c2ccc(F)cc2F)CC1` [Example 1, (2R,3R)-2-(2,4-difluorophenyl)-3-(4-methylenepiperidino)-1-(1H-1,2,4-triazol-1-yl)butan-2-ol], the MIC in data set [1] (setting [7]) was under 0.025 µg/mL; in data set [2] (setting [8]), 0.05 µg/mL (≈ 0.144 µM); in data set [3] (setting [9]), 0.05 µg/mL (≈ 0.144 µM); in data set [4], 0.39 µg/mL (≈ 1.12 µM). Moreover, the Inhibitory ratio (in data set [5]; with Candida albicans KC-36) was 98% throughout. The “Number of died mice/number of tested mice” value in data set [6] (oral, 500 mg/kg) is 0/3; in data set [6] (oral, 1000 mg/kg), 0/3; in data set [6] (subcutaneous, 125 mg/kg), 0/3; in data set [6] (subcutaneous, 250 mg/kg) it was 0/3; in data set [6] (subcutaneous, 500 mg/kg), 0/3; in data set [6] (subcutaneous, 1000 mg/kg) it was 0/3.
As for `C=C1CCN([C@@H](C)[C@@](O)(Cn2cncn2)c2ccc(F)cc2F)CC1` [Example 3, (2S,3S)-2-(2,4-difluorophenyl)-3-(4-methylenepiperidino)-1-(1H-1,2,4-triazol-1-yl)butan-2-ol], the MIC in data set [1] (setting [7]) was 0.39 µg/mL (≈ 1.12 µM); in data set [2] (setting [8]), 0.78 µg/mL (≈ 2.24 µM); in data set [3] (setting [9]), over 100 µg/mL; in data set [4] it was 50 µg/mL (≈ 144 µM).
`C=C1CCN([C@H](C)[C@](O)(Cn2ccnc2)c2ccc(F)cc2F)CC1` [Example 4, (2R,3R)-2-(2,4-difluorophenyl)-3-(4-methylenepiperidino)-1-(1H-imidazol-1-yl)butan-2-ol]: the MIC in data set [1] (setting [7]) was under 0.025 µg/mL; in data set [2] (setting [8]), under 0.025 µg/mL; in data set [3] (setting [9]), 0.05 µg/mL (≈ 0.144 µM); in data set [4], under 0.025 µg/mL.
`C=C1CCN([C@H](C)[C@](O)(Cn2cncn2)c2ccc(Cl)cc2)CC1` [Example 6, (2R,3R)-2-(4-chlorophenyl)-3-(4-methylenepiperidino)-1-(1H-1,2,4-triazol-1-yl)butan-2-ol]: the MIC in data set [1] (setting [7]) was under 0.0125 µg/mL; in data set [2] (setting [8]) it was 0.2 µg/mL (≈ 0.577 µM); in data set [3] (setting [9]), 6.25 µg/mL (≈ 18 µM); in data set [4], 3.13 µg/mL (≈ 9.02 µM).
The corresponding values for `C=C1CCN([C@H](C)[C@](O)(Cn2cncn2)c2ccc(Cl)cc2Cl)CC1` [Example 7, (2R,3R)-2-(2,4-dichlorophenyl)-3-(4-methylenepiperidino)-1-(1H-1,2,4-triazol-1-yl)butan-2-ol] are 0.025 µg/mL (≈ 0.0656 µM), 0.05 µg/mL (≈ 0.131 µM), 0.39 µg/mL (≈ 1.02 µM) and 0.39 µg/mL (≈ 1.02 µM).
In the same order, the values of `C=CC=C1CCN([C@H](C)[C@](O)(Cn2cncn2)c2ccc(F)cc2F)CC1` [Example 12, (2R,3R)-2-(2,4-difluorophenyl)-3-(4-propenylidenepiperidino)-1-(1H-1,2,4-triazol-1-yl)butan-2-ol] are under 0.025 µg/mL, 0.1 µg/mL (≈ 0.267 µM), 0.2 µg/mL (≈ 0.534 µM) and 0.78 µg/mL (≈ 2.08 µM).
With `C=C1CCCN([C@H](C)[C@](O)(Cn2cncn2)c2ccc(F)cc2F)C1` [Example 13, (2R,3R)-2-(2,4-difluorophenyl)-3-(3-methylenepiperidino)-1-(1H-1,2,4-triazol-1-yl)butan-2-ol], the MIC is 0.1 µg/mL (≈ 0.287 µM) in data set [1] (setting [7]), 0.39 µg/mL (≈ 1.12 µM) in data set [2] (setting [8]), 0.78 µg/mL (≈ 2.24 µM) in data set [3] (setting [9]) and 1.56 µg/mL (≈ 4.48 µM) in data set [4].
Consider `C=C1CCN([C@H](C)[C@](O)(Cn2cncn2)c2ccc(F)cc2F)C1` [Example 14, (2R,3R)-2-(2,4-difluorophenyl)-3-(3-methylenepyrrolidino)-1-(1H-1,2,4-triazol-1-yl)butan-2-ol], for which the MIC was under 0.025 µg/mL in data set [1] (setting [7]), 0.39 µg/mL (≈ 1.17 µM) in data set [2] (setting [8]), 0.39 µg/mL (≈ 1.17 µM) in data set [3] (setting [9]) and 0.78 µg/mL (≈ 2.33 µM) in data set [4].
With `OC(Cn1cncn1)(Cn1cncn1)c1ccc(F)cc1F` [Fluconazole, reference compound], the MIC was 0.39 µg/mL (≈ 1.27 µM) in data set [1] (Candida albicans), 12.5 µg/mL (≈ 40.8 µM) in data set [2] (setting [10]), over 100 µg/mL in data set [3] (setting [11]) and over 100 µg/mL in data set [4].
